Data as given in patent US20050009776A1, “Method of treating atrial fibrillation or atrial flutter” (Aderis Pharmaceuticals, Inc., priority 2003, published 2005).
Marks after values point to notes of the source that are not given here.

Tests used:
[1] = test system: A1 receptor / A2A receptor; assay: Affinity for adenosine A1 receptor relative to A2A receptor; format: binding
Source text: Therefore, DTI-0009 may be capable of terminating episodes of supraventricular arrythymias at doses that have little effect on normal heart rate or blood pressure.

[2] = test system: adult patients with rapid atrial fibrillation (AF); assay: Example 1: ventricular rate control in atrial fibrillation, 15-minute i.v. loading dose plus maintenance dose; format: in vivo, human
Procedure: A randomized, parallel-group, open label, dose-ranging study of DTI-0009 as a 15-minute intravenous loading dose (LD) followed by a maintenance dose (MD) infusion for up to 20 hours in adult patients with rapid atrial fibrillation (AF) (>120 bpm) was conducted. 78 patients were randomized to receive one of three LD regimens. If the ventricular rate (VR) was between 70 and 90 bpm 5 minutes after the end of the LD, then patients were randomized to one of the following three MDs of DTI-0009: 1.75 μg/kg/hr, 2.25 μg/kg/hr, or 2.75 μg/kg/hr. The MD was adjusted to keep the VR within the 70-90 bpm range.
63 of 69 patients completed the LD, 20 patients received a MD, and 18 patients completed at least 3 hours of MD. The VR remained below 100 bpm across all the dosing regimens during the 3-hour MD.

[3] = test system: atrioventricular (AV) node; assay: Example 2: electrophysiologic effects on atrioventricular nodal function, 30-minute i.v. infusion; format: in vivo, human
Procedure: An open-label, sequential group, dose-escalation study was conducted in electrophysiology laboratories at 11 sites in the United States between October 2000 and August 2001. The study protocol was approved by the institutional review board at each site, and patients provided assent and written informed consent prior to enrollment. Male and female patients (18 to 80 years of age), scheduled to undergo an electrophysiological (EP) study for a known or suspected cardiac arrhythmia or a catheter ablation procedure to an area other than the atrioventricular (AV) node, were enrolled in the study. Study procedures were performed after the completion of the scheduled EP procedure and patients were to be in sinus rhythm at study baseline. Exclusion criteria included: greater than first degree AV block, previous ablation of the AV node or AV node slow pathway, presence of an AV Wenckebach cycle length (AV WBCL)≧500 msec, treatment with atropine during the scheduled EP procedure, systolic blood pressure <90 or >180 mmHg, significant hemodynamic instability, ventricular response rate (VRR)<50 bpm, consumption of caffeine-containing food or beverage within the previous 12 hours, treatment with dipyridamole or diltiazem within the respective 5 half lives or theophylline, aminophylline, treatment with a therapeutic adenosine antagonist within the previous 24 hours, heart transplant or myocardial infarction within 30 days, known hypersensitivity to adenosine, known human immunodeficiency virus infection, or clinically significant hematologic, neurologic, hepatic, or renal function impairment.
Each patient received 1 of 6 doses of DTI-0009 (0.25, 1.0, 2.5, 4.0, 10.0, or 25.0 μg/kg) diluted in normal saline or normal saline only (control). Study drug was administered as a 30-minute i.v. infusion at a rate of 1 mL/minute. Patients were enrolled in sequential dose groups, beginning with the lowest active dose group and continuing in increasing dose order; the final group received normal saline. The decision to proceed to the next highest dose group was based on the safety response in the previous dose group.
Electrophysiologic (EP), electrocardiogram (ECG), blood pressure measurements, and blood collection for clinical laboratory measurements were performed at baseline (−10 to 0 minutes), during treatment (between 20 and 30 minutes), and at 10 minutes post-treatment.
EP measurements included ventricular response rate (VRR) during fixed atrial pacing at 250 and 400 msec (VRR 250 and VRR 400), AV WBCL, the interval from atrium to His bundle (AH interval) during sinus rhythm and rapid fixed atrial pacing at 600 msec, AV node effective refractory period (AVNERP), and atrial effective refractory period (AERP). Ventricular response rate during sinus rhythm was derived from the sinus cycle length.
ECG measurements included PR interval, QRS complex duration, and QT interval. Efficacy was based on changes in EP and ECG parameters from baseline to the treatment period and to post treatment. Safety was based on the incidence of adverse events, blood pressure measurements, and clinical laboratory values.
Demographic and baseline information were summarized by dose group. Efficacy variables were summarized overall by dose group at baseline, during treatment, and at post-treatment; mean changes from baseline to treatment period and post-treatment were calculated. Treatment effects (the mean difference between change from baseline for DTI-0009 dose and change from baseline for normal saline) and confidence intervals (95% CI) were estimated from an analysis of covariance (ANCOVA) model with treatment as the main factor and baseline score as a covariate. Regression models were constructed to test for dose responses. Efficacy analyses included all patients who received at least 20 minutes of study drug infusion, had analyzable VRR 250 at baseline and during treatment, and were in sinus rhythm at baseline.

CCNC(=O)[C@H]1O[C@@H](n2cnc3c(NC4CCCC4)ncnc32)[C@H](O)[C@@H]1O [DTI-0009, N^6-cyclopentyl-5′-(N-ethyl)carboxamidoadenosine]
affinity for the A1 receptor higher than for the A2A receptor [1]: 340 fold | ventricular rate (VR) ([2]; LD 2.5 μg/kg, 5 min, Baseline 143): 129^a bpm | ventricular rate (VR) ([2]; LD 2.5 μg/kg, 10 min, Baseline 143): 117^a bpm | ventricular rate (VR) ([2]; LD 2.5 μg/kg, 15 min, Baseline 143): 113^b bpm | ventricular rate (VR) ([2]; LD 2.5 μg/kg, 20 min, Baseline 143): 115^b bpm | ventricular rate (VR) ([2]; LD 5.0 μg/kg, 5 min, Baseline 138): 115^b bpm | ventricular rate (VR) ([2]; LD 5.0 μg/kg, 10 min, Baseline 138): 104^b bpm | ventricular rate (VR) ([2]; LD 5.0 μg/kg, 15 min, Baseline 138): 108^b bpm | ventricular rate (VR) ([2]; LD 5.0 μg/kg, 20 min, Baseline 138): 111^b bpm | ventricular rate (VR) ([2]; LD 7.5 μg/kg, 5 min, Baseline 143): 110^b,c bpm | ventricular rate (VR) ([2]; LD 7.5 μg/kg, 10 min, Baseline 143): 99^b,c bpm | ventricular rate (VR) ([2]; LD 7.5 μg/kg, 15 min, Baseline 143): 105^b bpm | ventricular rate (VR) ([2]; LD 7.5 μg/kg, 20 min, Baseline 143): 106^b bpm | VR during maintenance dose ([2]; all dosing regimens, 3-hour MD): below 100 bpm | systolic and diastolic blood pressures ([2]; during the LD): did not change significantly | AERP Treatment Effect ([3]; 0.25 μg/kg, during treatment): -9.6 ms | AH interval 600 msec Pacing Treatment Effect ([3]; 0.25 μg/kg, during treatment): 4.85 ms | AH interval Sinus Rhythm Treatment Effect ([3]; 0.25 μg/kg, during treatment): -2.8 ms | AVNERP Treatment Effect ([3]; 0.25 μg/kg, during treatment): -7.03 ms | AERP Treatment Effect ([3]; 1.0 μg/kg, during treatment): -18.3 ms | AH interval 600 msec Pacing Treatment Effect ([3]; 1.0 μg/kg, during treatment): 2.6 ms | AH interval Sinus Rhythm Treatment Effect ([3]; 1.0 μg/kg, during treatment): -0.1 ms | AVNERP Treatment Effect ([3]; 1.0 μg/kg, during treatment): -1.0 ms | PR interval treatment effect ([3]; 1.0 μg/kg, during treatment, p=0.008): -42.2 ms | PR interval treatment effect ([3]; 1.0 μg/kg, post-treatment, p=0.023): -34.5 ms | AERP Treatment Effect ([3]; 2.5 μg/kg, during treatment): -7.3 ms | AH interval 600 msec Pacing Treatment Effect ([3]; 2.5 μg/kg, during treatment): 18.0 ms | AH interval Sinus Rhythm Treatment Effect ([3]; 2.5 μg/kg, during treatment): 7.1 ms | AVNERP Treatment Effect ([3]; 2.5 μg/kg, during treatment): 16.0 ms | AERP Treatment Effect ([3]; 4.0 μg/kg, during treatment): 0.6 ms | AH interval 600 msec Pacing Treatment Effect ([3]; 4.0 μg/kg, during treatment): 18.7 ms | AH interval Sinus Rhythm Treatment Effect ([3]; 4.0 μg/kg, during treatment): 7.2 ms | AVNERP Treatment Effect ([3]; 4.0 μg/kg, during treatment): 82.4 ms | VRR 250 treatment effect ([3]; 4.0 μg/kg, during treatment, CI −51.0, −8.4, p=0.008): −29.7 bpm | AERP Treatment Effect ([3]; 10.0 μg/kg, during treatment): −22.0* msec | AH interval 600 msec Pacing Treatment Effect ([3]; 10.0 μg/kg, during treatment): 57.9*** msec | AH interval Sinus Rhythm Treatment Effect ([3]; 10.0 μg/kg, during treatment): 21.1** msec | AVNERP Treatment Effect ([3]; 10.0 μg/kg, during treatment): 231.5*** msec | VRR 250 treatment effect ([3]; 10.0 μg/kg, during treatment, CI −68.3, −26.4, p=0.001): −47.4 bpm | PR interval treatment effect ([3]; 10.0 μg/kg, post-treatment, p=0.007): 42.9 ms | AERP Treatment Effect ([3]; 25.0 μg/kg, during treatment): 4.0 ms | AH interval 600 msec Pacing Treatment Effect ([3]; 25.0 μg/kg, during treatment): 64.8** msec | AH interval Sinus Rhythm Treatment Effect ([3]; 25.0 μg/kg, during treatment): 14.2 ms | AVNERP Treatment Effect ([3]; 25.0 μg/kg, during treatment): 198.3* msec | VRR 250 treatment effect ([3]; 25.0 μg/kg, during treatment, CI −85.7, −18.5, p=0.004): −52.1 bpm | VRR 250 treatment effect at lower doses ([3]; 0.25, 1.0, and 2.5 μg/kg): no statistically significant treatment effect | QRS duration or QT interval ([3]; during the study): no statistically significant changes | AV WBCL treatment effect ([3]; during treatment, 10.0 and 25.0 μg/kg (p=0.001, p=0.035)): statistically significant treatment effects (increases from baseline) | AV WBCL treatment effect ([3]; post-treatment, 4.0, 10.0 and 25.0 μg/kg (p=0.013, p=0.001, p=0.001)): statistically significant treatment effects (increases from baseline)
